Measured values published in article PMC7069944, “Amino acid levels determine metabolism and CYP450 function of hepatocytes and hepatoma cell lines” (Nature Communications, 2020).
“And” between values parts separate entries of the source, which are not always exact repeats. Equal values may be shown once.

Legend:
HC3X = assay: Repeated-exposure DILI training compounds, resazurin conversion, HC3X; conditions: for resazurin conversion (Supplementary Figure 7D): HC3X AAGLY D40, replicates
How it was run: (§1)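 PSC-derived hepatocyte-like cells were differentiated in 384-well plates, and drugs were added after 8 h of attachment. Viability was measured by resazurin conversion and related to therapeutic Cmax values, with untreated wells as negative control.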

HC6X = assay: Repeated-exposure DILI training compounds, resazurin conversion, HC6X; conditions: listed as Nefadazone; for resazurin conversion (Supplementary Figure 7D): replicates; for % resazurin conversion: repeat exposure
How it was run: as §1

HLC = assay: Repeated-exposure DILI training compounds, resazurin conversion, HLC; conditions: listed as Nefadazone; for resazurin conversion (Supplementary Figure 7D): replicates; for % resazurin conversion: repeat exposure
How it was run: as §1

HepG2 = assay: Repeated-exposure DILI training compounds, resazurin conversion, HepG2; conditions: listed as Nefadazone; for resazurin conversion (Supplementary Figure 7D): replicates; for % resazurin conversion: repeat exposure
How it was run: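 Hepatotoxicity prediction used a miniaturized 384-well differentiation setup, scoring viability through resazurin reduction relative to Cmax.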

**Q.** Which results are given for CCc1nn(CCCN2CCN(c3cccc(Cl)c3)CC2)c(=O)n1CCOc1ccccc1 [nefazodone]?
**A.** resazurin conversion (Supplementary Figure 7D) (HC3X; 3 uM, listed as Nefadazone): 123.3 and 103.5 and 107.9 and 73 and 98.7 and 69.4; resazurin conversion (Supplementary Figure 7D) (HC3X; 5 uM, listed as Nefadazone): 105.3 and 82.4 and 66.4 and 71.1 and 119.1 and 75.8; resazurin conversion (Supplementary Figure 7D) (HC3X; 10 uM, listed as Nefadazone): 99 and 147.2 and 96.3 and 91.8 and 116 and 76.9; resazurin conversion (Supplementary Figure 7D) (HC3X; 30 uM, listed as Nefadazone): 10.5 and 10.9 and 12.1 and 10 and 9.5 and 10.1; resazurin conversion (Supplementary Figure 7D) (HC3X; 50 uM, listed as Nefadazone): 10 and 9.9 and 9.3 (2×) and 9.2 and 9.8; resazurin conversion (Supplementary Figure 7D) (HC3X; 100 uM, listed as Nefadazone): 10.6 and 10.4 and 9.7 and 9.8 and 9.4 and 9.6; resazurin conversion (Supplementary Figure 7D) (HC3X; 300 uM, listed as Nefadazone): 11.9 and 11.5 and 10.9 and 11.2 and 10.5 and 10.7; resazurin conversion (Supplementary Figure 7D) (HC3X; 600 uM, listed as Nefadazone): 12 and 12.2 and 11.3 and 11.6 and 11.1 and 10.9; IC50/Cmax (HC3X; human): 12.43; % resazurin conversion (HC3X; repeat exposure, HC3X AAGLY D40, 1200 uM, listed as Nefadazone): 12.8% and 12.4% and 11.8% and 12.1% and 11.5% and 12.2%; resazurin conversion (Supplementary Figure 7D) (HC6X; HC6X AAGLY D40, 3 uM): 86.5 and 67.1 and 73.3 and 119.9 and 72.8 and 62.6; resazurin conversion (Supplementary Figure 7D) (HC6X; HC6X AAGLY D40, 5 uM): 140.1 and 114.8 and 61.7 and 68.6 and 76.5 and 54.7; resazurin conversion (Supplementary Figure 7D) (HC6X; HC6X AAGLY D40, 10 uM): 51.6 and 55.1 and 57.3 and 43.6 and 49.8 and 39.8; resazurin conversion (Supplementary Figure 7D) (HC6X; HC6X AAGLY D40, 30 uM): 34.6 and 33.4 and 31.3 and 32.6 and 37.8 and 31.2; resazurin conversion (Supplementary Figure 7D) (HC6X; HC6X AAGLY D40, 50 uM): 34.2 and 34.7 and 32 and 32.2 and 31.8 and 32.4; resazurin conversion (Supplementary Figure 7D) (HC6X; HC6X AAGLY D40, 100 uM): 37.1 and 36.6 and 34.3 and 34.6 and 33.8 and 34.2; resazurin conversion (Supplementary Figure 7D) (HC6X; HC6X AAGLY D40, 300 uM): 40.6 and 41.1 and 39.2 and 40 and 39.1 and 37.4; resazurin conversion (Supplementary Figure 7D) (HC6X; HC6X AAGLY D40, 600 uM): 39.7 and 40.4 and 38.5 and 38.6 and 37.6 and 37.9; resazurin conversion (Supplementary Figure 7D) (HC6X; HC6X AAGLY D40 Remove dox, 3 uM): 183.4 and 100.9 and 109.5 and 115 and 122 and 109.2; resazurin conversion (Supplementary Figure 7D) (HC6X; HC6X AAGLY D40 Remove dox, 5 uM): 251 and 184.4 and 147 and 113 and 98.3 and 98.4; resazurin conversion (Supplementary Figure 7D) (HC6X; HC6X AAGLY D40 Remove dox, 10 uM): 257.2 and 78.2 and 239.1 and 205.6 and 148.8 and 110.7; resazurin conversion (Supplementary Figure 7D) (HC6X; HC6X AAGLY D40 Remove dox, 30 uM): 87 and 111.9 and 134.6 and 112.2 and 58.4 and 83.6; resazurin conversion (Supplementary Figure 7D) (HC6X; HC6X AAGLY D40 Remove dox, 50 uM): 39.8 and 27.8 and 36.9 and 29.8 and 32 and 29.6; resazurin conversion (Supplementary Figure 7D) (HC6X; HC6X AAGLY D40 Remove dox, 100 uM): 29.7 (2×) and 28.9 and 29.4 and 29.6 and 29.1; resazurin conversion (Supplementary Figure 7D) (HC6X; HC6X AAGLY D40 Remove dox, 300 uM): 34.3 and 32.8 and 33.8 and 34 and 34.1 and 34.5; resazurin conversion (Supplementary Figure 7D) (HC6X; HC6X AAGLY D40 Remove dox, 600 uM): 36.7 (2×) and 35.4 and 36 and 36.5 and 36.3; % resazurin conversion (HC6X; HC6X AAGLY D40, 1200 uM): 40.4% and 40.1% and 39.1% and 39.2% and 37.6% and 37.4%; % resazurin conversion (HC6X; HC6X AAGLY D40 Remove dox, 1200 uM): 38.2% and 35.3% and 36.9% and 37.7% and 37% and 35.8%; resazurin conversion (Supplementary Figure 7D) (HLC; HLC AAGLY D40, 3 uM): 81 and 139.4 and 131.8 and 81.1 and 194.1 and 102.8; resazurin conversion (Supplementary Figure 7D) (HLC; HLC AAGLY D40, 5 uM): 158.2 and 102.6 and 130.1 and 239.6 and 167 and 46.2; resazurin conversion (Supplementary Figure 7D) (HLC; HLC AAGLY D40, 10 uM): 117.1 and 195.1 and 92.8 and 87 and 6 and 258.8; resazurin conversion (Supplementary Figure 7D) (HLC; HLC AAGLY D40, 30 uM): 52.4 and 182.9 and 124.1 and 55.1 and 48.3 and 27; resazurin conversion (Supplementary Figure 7D) (HLC; HLC AAGLY D40, 50 uM): 46.9 and 25.2 and 26.1 and 23.4 and 30.1 and 22.3; resazurin conversion (Supplementary Figure 7D) (HLC; HLC AAGLY D40, 100 uM): 22.1 and 23 and 22.5 and 22.9 and 24.2 and 22.8; resazurin conversion (Supplementary Figure 7D) (HLC; HLC AAGLY D40, 300 uM): 25.4 and 26.9 (2×) and 25.9 and 25.8 and 27.1; resazurin conversion (Supplementary Figure 7D) (HLC; HLC AAGLY D40, 600 uM): 27.4 and 30.3 and 28.5 and 29.2 and 27.1 and 28.7; resazurin conversion (Supplementary Figure 7D) (HLC; HLC LDM D40, 3 uM): 101.3 and 106.4 and 83.1 and 128.8 and 110.4 and 128.2; resazurin conversion (Supplementary Figure 7D) (HLC; HLC LDM D40, 5 uM): 103.9 and 126.1 and 116.3 and 112.6 and 76.1 and 103.3; resazurin conversion (Supplementary Figure 7D) (HLC; HLC LDM D40, 10 uM): 114.4 and 115.2 and 124.5 and 104.3 and 103.8 and 111.5; resazurin conversion (Supplementary Figure 7D) (HLC; HLC LDM D40, 30 uM): 92.8 and 75.4 and 51.3 and 90.2 and 120.8 and 118.9; resazurin conversion (Supplementary Figure 7D) (HLC; HLC LDM D40, 50 uM): 12.7 and 17.8 and 12.3 and 20.8 and 25.8 and 69.6; resazurin conversion (Supplementary Figure 7D) (HLC; HLC LDM D40, 100 uM): 11 and 11.6 and 11.2 and 11.3 and 10.7 and 11.5; resazurin conversion (Supplementary Figure 7D) (HLC; HLC LDM D40, 300 uM): 13.5 and 13.3 and 13.6 and 12.4 and 12.2 (2×); resazurin conversion (Supplementary Figure 7D) (HLC; HLC LDM D40, 600 uM): 13.7 (2×) and 13.1 and 13.4 and 13.5 and 13.2; % resazurin conversion (HLC; HLC AAGLY D40, 1200 uM): 28.9% and 30.9% and 30.5% and 32.9% and 28% and 30.1%; % resazurin conversion (HLC; HLC LDM D40, 1200 uM): 14.7% and 15.3% and 13.9% and 14.1% and 13.7% and 12%; resazurin conversion (Supplementary Figure 7D) (HepG2; HepG2 AAGLY D30, 3 uM): 105.9 and 126.8 and 102.6 and 103 and 93.1 and 96.9; resazurin conversion (Supplementary Figure 7D) (HepG2; HepG2 AAGLY D30, 5 uM): 129.6 and 134.9 and 121.5 and 111.6 and 104 and 111.7; resazurin conversion (Supplementary Figure 7D) (HepG2; HepG2 AAGLY D30, 10 uM): 105.3 and 123.3 and 96.5 and 99.1 and 96.1 and 97.4; resazurin conversion (Supplementary Figure 7D) (HepG2; HepG2 AAGLY D30, 30 uM): 36 and 76.7 and 84.8 and 78.3 and 78 and 67.3; resazurin conversion (Supplementary Figure 7D) (HepG2; HepG2 AAGLY D30, 50 uM): 9 and 9.3 and 8 (2×) and 8.1 and 7.7; resazurin conversion (Supplementary Figure 7D) (HepG2; HepG2 AAGLY D30, 100 uM): 9.2 and 9.7 and 8.4 (2×) and 7.9 and 8.1; resazurin conversion (Supplementary Figure 7D) (HepG2; HepG2 AAGLY D30, 300 uM): 11.5 and 11.8 and 10.1 (2×) and 10.3 and 9.9; resazurin conversion (Supplementary Figure 7D) (HepG2; HepG2 AAGLY D30, 600 uM): 11.8 and 11.6 and 10.3 and 10.8 and 10.2 and 10.1; resazurin conversion (Supplementary Figure 7D) (HepG2; HepG2 CTL D7, 3 uM): 81.4 and 72 and 103.7 and 72.2 and 87 and 94.4; resazurin conversion (Supplementary Figure 7D) (HepG2; HepG2 CTL D7, 5 uM): 84.8 and 64.7 and 80.3 and 68.3 and 74.8 and 74.1; resazurin conversion (Supplementary Figure 7D) (HepG2; HepG2 CTL D7, 10 uM): 81.6 and 63.4 and 87.3 and 63.9 and 78.5 and 72.9; resazurin conversion (Supplementary Figure 7D) (HepG2; HepG2 CTL D7, 30 uM): 60.5 and 51.3 and 64.3 and 51.4 and 61.6 and 55.4; resazurin conversion (Supplementary Figure 7D) (HepG2; HepG2 CTL D7, 50 uM): 35.6 and 31 and 32.6 and 33.9 and 34.6 and 33.7; resazurin conversion (Supplementary Figure 7D) (HepG2; HepG2 CTL D7, 100 uM): 30.9 and 30.6 and 31.4 and 30 and 30.5 and 29.7; resazurin conversion (Supplementary Figure 7D) (HepG2; HepG2 CTL D7, 300 uM): 36.6 and 35.8 and 37 and 36.1 and 37.2 and 36; resazurin conversion (Supplementary Figure 7D) (HepG2; HepG2 CTL D7, 600 uM): 37.5 (2×) and 36.2 and 38.4 and 36.6 and 34.9; % resazurin conversion (HepG2; HepG2 AAGLY D30, 1200 uM): 11% and 9.3% and 9.9% and 9.1%; % resazurin conversion (HepG2; HepG2 CTL D7, 1200 uM): 34.4% and 33.1% and 36.4% and 33% and 34.9% and 32.3%
